The source made the active and inactive calls. The calls are words filed in the database; no cut-off is given here.
Experiments:
[1] = molecular target: Cyclin-dependent kinase 2/cyclin E (Homo sapiens) (UniProt P24864+P24941+O96020); experiment: Inhibition of CDK2/cyclinE using fluorescent labelled substrate at 5 uM by caliper method; type: protein-complex assay
[2] = molecular target: T1, RAC-alpha serine/threonine-protein kinase (Homo sapiens, UniProt P31749); experiment: Inhibition of Akt 1 in human AN3CA cells assessed as phosphorylation of Akt at T308 after 2 hrs by Western Blot analysis; type: cell-based, AN3-CA
[3] = molecular target: 3-phosphoinositide-dependent protein kinase 1 (Homo sapiens) (UniProt O15530); experiment: Inhibition of PDK1 using fluorescent labelled substrate at 5 uM by caliper method
[4] = molecular target: Protein kinase C alpha type (Homo sapiens) (UniProt P17252); experiment: Inhibition of PKCalpha using fluorescent labelled substrate at 5 uM by caliper method
[5] = molecular target: Serine/threonine-protein kinase PAK 2 (Homo sapiens) (UniProt Q13177); experiment: Inhibition of PAK2 using fluorescent labelled substrate at 5 uM by caliper method
[6] = molecular target: Ribosomal protein S6 kinase alpha-2 (Homo sapiens) (UniProt Q15349); experiment: Inhibition of RSK3 using fluorescent labelled substrate at 5 uM by caliper method
[7] = molecular target: Cyclin-dependent kinase 5/CDK5 activator 1 (Homo sapiens) (UniProt Q00535+Q15078); experiment: Inhibition of CDK5/p35 using fluorescent labelled substrate at 5 uM by caliper method; type: protein-complex assay
[8] = molecular target: T1, RAC-alpha serine/threonine-protein kinase; experiment: Inhibition of Akt1 in human AN3CA cells assessed as phosphorylation PRAS40 at T246 after 2 hrs by Western Blot analysis; type: cell-based, AN3-CA
[9] = Inhibition of PKA using fluorescent labelled substrate at 5 uM by caliper method
[10] = molecular target: Serine/threonine-protein kinase pim-1 (Homo sapiens) (UniProt P11309); experiment: Inhibition of PIM1 using fluorescent labelled substrate at 5 uM by caliper method
[11] = molecular target: Ribosomal protein S6 kinase alpha-5 (Homo sapiens) (UniProt O75582); experiment: Inhibition of MSK1 using fluorescent labelled substrate at 5 uM by caliper method
A2780 = experiment: Antiproliferative activity against human A2780 cells after 72 hrs by MTS assay; type: functional, cell-based; details: A2780, 72 h
[12] = molecular target: RAC-beta serine/threonine-protein kinase (Homo sapiens, UniProt P31751); experiment: Binding affinity to Akt2 (1 to 481) expressed in Sf9 cells assessed as change in melting temperature at 15 uM
[13] = molecular target: T1, RAC-alpha serine/threonine-protein kinase; experiment: Inhibition of Akt1 in human A2780 cells assessed as phosphorylation of Akt at S473 after 2 hrs by Western Blot analysis; type: cell-based
[14] = molecular target: T1, RAC-alpha serine/threonine-protein kinase; experiment: Inhibition of Akt1 in human A2780 cells assessed as phosphorylation PRAS40 at T246 after 2 hrs by Western Blot analysis; type: cell-based
AN3-CA = experiment: Antiproliferative activity against human AN3CA cells after 72 hrs by MTS assay; type: functional, cell-based
[15] = molecular target: Ribosomal protein S6 kinase beta-1 (Homo sapiens) (UniProt P23443); experiment: Inhibition of P70S6KB1 using fluorescent labelled substrate at 5 uM by caliper method
[16] = molecular target: Protein kinase C gamma type (Homo sapiens) (UniProt P05129); experiment: Inhibition of PKCgamma using fluorescent labelled substrate at 5 uM by caliper method
[17] = molecular target: T1, RAC-alpha serine/threonine-protein kinase; experiment: Inhibition of Akt1 (1 to 480) expressed in Sf9 cells by indirect affinity mass spectrometry assay
[18] = molecular target: Protein kinase C beta type (Homo sapiens) (UniProt P05771); experiment: Inhibition of PKCbeta1 using fluorescent labelled substrate at 5 uM by caliper method
[19] = molecular target: T1, RAC-alpha serine/threonine-protein kinase; experiment: Inhibition of Akt 1 in human A2780 cells assessed as phosphorylation of Akt at T308 after 2 hrs by Western Blot analysis; type: cell-based
[20] = molecular target: Mitogen-activated protein kinase 3 (Homo sapiens) (UniProt P27361); experiment: Inhibition of MAPK3 using fluorescent labelled substrate at 5 uM by caliper method
[21] = Half life in female CD1 mouse liver microsomes at 1 uM by LC/MS/MS; type: ADME, Microsome
[22] = molecular target: T2, RAC-gamma serine/threonine-protein kinase (Homo sapiens, UniProt Q9Y243); experiment: Binding affinity to Akt3 (1 to 479) expressed in Sf9 cells assessed as change in melting temperature at 15 uM
[23] = molecular target: Rho-associated protein kinase 1 (Homo sapiens) (UniProt Q13464); experiment: Inhibition of ROCK1 using fluorescent labelled substrate at 5 uM by caliper method
[24] = molecular target: Protein kinase C theta type (Homo sapiens) (UniProt Q04759); experiment: Inhibition of PKCtheta using fluorescent labelled substrate at 5 uM by caliper method
[25] = molecular target: T2, RAC-gamma serine/threonine-protein kinase; experiment: Inhibition of Akt3 (1 to 479) expressed in Sf9 cells using biotin-GRPRTSSFAEG as substrate after 20 mins by Alpha-screen assay
Cytochrome P450 2C9 = Cytochrome P450 2C9 (Homo sapiens, UniProt P11712); experiment: Inhibition of CYP2C9 in human liver microsomes using tolbutamide as substrate after 10 mins; type: ADME, Microsome
[26] = molecular target: MAP kinase-activated protein kinase 2 (Homo sapiens) (UniProt P49137); experiment: Inhibition of MAPKAPK2 using fluorescent labelled substrate at 5 uM by caliper method
[27] = molecular target: T1, RAC-alpha serine/threonine-protein kinase; experiment: Inhibition of Akt1 (1 to 480) expressed in Sf9 cells using biotin-GRPRTSSFAEG as substrate after 20 mins by Alpha-screen assay

T2 sequence (Q9Y243 whole entry): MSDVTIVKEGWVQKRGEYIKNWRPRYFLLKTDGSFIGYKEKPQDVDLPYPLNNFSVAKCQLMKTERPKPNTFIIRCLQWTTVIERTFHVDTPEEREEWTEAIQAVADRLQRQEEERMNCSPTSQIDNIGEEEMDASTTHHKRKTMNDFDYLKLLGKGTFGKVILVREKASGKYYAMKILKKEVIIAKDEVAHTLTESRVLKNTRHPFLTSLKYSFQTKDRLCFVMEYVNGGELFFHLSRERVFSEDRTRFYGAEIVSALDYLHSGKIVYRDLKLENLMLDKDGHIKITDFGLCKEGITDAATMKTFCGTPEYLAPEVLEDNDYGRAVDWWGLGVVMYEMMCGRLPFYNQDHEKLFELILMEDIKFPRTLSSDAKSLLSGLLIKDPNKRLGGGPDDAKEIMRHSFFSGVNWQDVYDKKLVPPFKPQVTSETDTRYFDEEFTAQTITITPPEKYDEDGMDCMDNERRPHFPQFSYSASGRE
T1 sequence (P31749 whole entry): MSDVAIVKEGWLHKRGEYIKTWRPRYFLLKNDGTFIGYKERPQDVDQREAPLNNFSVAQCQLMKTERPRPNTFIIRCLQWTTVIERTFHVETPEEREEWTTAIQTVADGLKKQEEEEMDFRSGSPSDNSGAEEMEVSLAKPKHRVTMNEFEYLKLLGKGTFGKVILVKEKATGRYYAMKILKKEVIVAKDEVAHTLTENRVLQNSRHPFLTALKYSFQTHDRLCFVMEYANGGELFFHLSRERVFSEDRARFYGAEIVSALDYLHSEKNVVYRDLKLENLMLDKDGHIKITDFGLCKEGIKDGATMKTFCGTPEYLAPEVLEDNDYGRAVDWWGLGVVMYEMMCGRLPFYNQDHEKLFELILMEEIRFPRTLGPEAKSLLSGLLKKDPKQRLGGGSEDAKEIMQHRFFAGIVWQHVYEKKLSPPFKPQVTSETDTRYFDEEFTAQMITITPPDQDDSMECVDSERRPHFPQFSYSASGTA
Ribosomal protein S6 kinase beta-1 (Homo sapiens), sequence (P23443 whole entry, looked up): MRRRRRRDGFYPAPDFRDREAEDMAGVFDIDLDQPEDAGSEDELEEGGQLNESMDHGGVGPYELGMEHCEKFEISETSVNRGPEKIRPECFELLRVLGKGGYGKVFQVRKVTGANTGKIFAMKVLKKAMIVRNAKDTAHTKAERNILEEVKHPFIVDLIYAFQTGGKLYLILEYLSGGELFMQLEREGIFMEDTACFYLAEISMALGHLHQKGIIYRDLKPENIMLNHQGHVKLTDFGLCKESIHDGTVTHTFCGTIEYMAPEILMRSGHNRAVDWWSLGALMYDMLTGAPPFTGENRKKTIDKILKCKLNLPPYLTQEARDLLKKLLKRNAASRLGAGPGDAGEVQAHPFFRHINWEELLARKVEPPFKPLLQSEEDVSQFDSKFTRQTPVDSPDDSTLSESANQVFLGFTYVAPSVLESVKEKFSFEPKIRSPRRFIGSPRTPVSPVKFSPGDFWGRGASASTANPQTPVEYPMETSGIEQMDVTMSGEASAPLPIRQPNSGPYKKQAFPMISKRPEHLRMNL
Serine/threonine-protein kinase PAK 2 (Homo sapiens), sequence (Q13177 whole entry): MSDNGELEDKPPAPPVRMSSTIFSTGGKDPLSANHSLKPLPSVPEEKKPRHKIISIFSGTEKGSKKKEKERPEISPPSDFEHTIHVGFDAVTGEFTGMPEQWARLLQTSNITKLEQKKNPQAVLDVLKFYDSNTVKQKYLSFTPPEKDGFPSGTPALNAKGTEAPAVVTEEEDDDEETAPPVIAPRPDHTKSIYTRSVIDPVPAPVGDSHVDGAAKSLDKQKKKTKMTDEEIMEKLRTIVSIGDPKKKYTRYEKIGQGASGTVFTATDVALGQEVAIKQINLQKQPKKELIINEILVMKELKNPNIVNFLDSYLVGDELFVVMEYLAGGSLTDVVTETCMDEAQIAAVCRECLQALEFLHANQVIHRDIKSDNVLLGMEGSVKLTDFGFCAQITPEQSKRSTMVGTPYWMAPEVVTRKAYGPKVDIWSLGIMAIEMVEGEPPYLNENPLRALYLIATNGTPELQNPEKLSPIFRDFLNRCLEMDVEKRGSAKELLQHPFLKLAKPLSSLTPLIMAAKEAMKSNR
MAP kinase-activated protein kinase 2 (Homo sapiens), sequence (P49137 whole entry, looked up): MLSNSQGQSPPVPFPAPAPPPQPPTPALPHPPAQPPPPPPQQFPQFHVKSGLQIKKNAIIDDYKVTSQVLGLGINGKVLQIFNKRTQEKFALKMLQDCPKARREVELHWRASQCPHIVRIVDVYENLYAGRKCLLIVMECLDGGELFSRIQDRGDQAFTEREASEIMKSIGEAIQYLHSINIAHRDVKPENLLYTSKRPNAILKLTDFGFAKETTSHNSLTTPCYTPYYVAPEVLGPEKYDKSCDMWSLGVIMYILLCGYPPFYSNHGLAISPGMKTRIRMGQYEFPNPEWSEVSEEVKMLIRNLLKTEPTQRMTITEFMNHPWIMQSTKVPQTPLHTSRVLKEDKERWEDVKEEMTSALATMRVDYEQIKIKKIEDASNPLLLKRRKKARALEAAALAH
Cyclin-dependent kinase 5/CDK5 activator 1 (Homo sapiens), sequence (Q00535 whole entry): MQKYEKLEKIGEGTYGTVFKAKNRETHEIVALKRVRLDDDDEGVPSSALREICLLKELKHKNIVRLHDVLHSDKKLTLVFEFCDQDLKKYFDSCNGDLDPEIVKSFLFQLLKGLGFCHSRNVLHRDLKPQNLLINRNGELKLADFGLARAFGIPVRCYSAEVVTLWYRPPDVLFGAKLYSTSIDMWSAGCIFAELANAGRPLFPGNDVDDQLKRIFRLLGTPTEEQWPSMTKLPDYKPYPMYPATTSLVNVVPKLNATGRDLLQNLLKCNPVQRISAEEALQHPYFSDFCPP
Cyclin-dependent kinase 5/CDK5 activator 1 (Homo sapiens), sequence (Q15078 99-307 partner limits assumed): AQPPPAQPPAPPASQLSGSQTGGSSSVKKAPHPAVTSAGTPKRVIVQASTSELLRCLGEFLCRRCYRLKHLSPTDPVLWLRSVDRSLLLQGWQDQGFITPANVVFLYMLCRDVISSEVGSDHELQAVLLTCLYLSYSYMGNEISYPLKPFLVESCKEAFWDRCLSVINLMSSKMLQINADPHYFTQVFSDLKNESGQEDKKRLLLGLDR
Mitogen-activated protein kinase 3 (Homo sapiens), sequence (P27361 whole entry): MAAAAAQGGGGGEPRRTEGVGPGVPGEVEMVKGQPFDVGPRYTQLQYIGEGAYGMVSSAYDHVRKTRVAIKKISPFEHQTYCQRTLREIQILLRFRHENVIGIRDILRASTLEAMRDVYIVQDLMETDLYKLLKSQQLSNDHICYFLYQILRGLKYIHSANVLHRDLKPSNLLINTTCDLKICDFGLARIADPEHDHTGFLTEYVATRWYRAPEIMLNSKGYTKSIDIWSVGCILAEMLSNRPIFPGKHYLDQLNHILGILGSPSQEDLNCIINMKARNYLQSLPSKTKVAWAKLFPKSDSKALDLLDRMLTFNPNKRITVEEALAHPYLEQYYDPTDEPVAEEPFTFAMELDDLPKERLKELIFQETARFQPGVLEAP
Cytochrome P450 2C9, sequence (P11712 whole entry): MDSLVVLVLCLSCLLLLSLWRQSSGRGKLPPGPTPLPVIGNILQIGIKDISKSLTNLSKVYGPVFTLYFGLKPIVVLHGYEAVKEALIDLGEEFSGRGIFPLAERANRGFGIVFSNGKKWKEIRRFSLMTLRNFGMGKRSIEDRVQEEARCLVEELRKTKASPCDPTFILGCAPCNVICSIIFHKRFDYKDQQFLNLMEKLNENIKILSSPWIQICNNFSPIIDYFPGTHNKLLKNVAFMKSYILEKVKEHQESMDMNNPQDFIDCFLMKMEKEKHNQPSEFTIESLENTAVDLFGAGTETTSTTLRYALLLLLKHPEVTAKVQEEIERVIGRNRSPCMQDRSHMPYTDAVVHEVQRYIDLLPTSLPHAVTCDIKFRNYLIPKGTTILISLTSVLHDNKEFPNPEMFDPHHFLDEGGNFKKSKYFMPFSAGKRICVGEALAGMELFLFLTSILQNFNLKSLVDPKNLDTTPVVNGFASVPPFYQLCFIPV
RAC-beta serine/threonine-protein kinase, sequence (P31751 whole entry): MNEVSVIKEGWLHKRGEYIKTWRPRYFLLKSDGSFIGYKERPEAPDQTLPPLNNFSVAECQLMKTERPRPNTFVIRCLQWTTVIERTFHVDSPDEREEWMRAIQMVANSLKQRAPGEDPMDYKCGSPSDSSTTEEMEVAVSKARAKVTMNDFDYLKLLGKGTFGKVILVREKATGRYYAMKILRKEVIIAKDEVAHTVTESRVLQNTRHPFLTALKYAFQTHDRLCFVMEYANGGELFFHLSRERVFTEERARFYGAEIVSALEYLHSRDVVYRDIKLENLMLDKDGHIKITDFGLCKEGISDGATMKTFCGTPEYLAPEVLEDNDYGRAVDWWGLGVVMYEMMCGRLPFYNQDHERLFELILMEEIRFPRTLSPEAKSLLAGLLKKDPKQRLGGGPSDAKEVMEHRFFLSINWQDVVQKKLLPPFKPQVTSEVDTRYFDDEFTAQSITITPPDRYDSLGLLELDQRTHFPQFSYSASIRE

**Q.** With `Nc1ncccc1-c1nc2cccnc2n1-c1ccc(CC(=O)Nc2ccccc2)cc1` as the compound, how does the inhibition [1] read?
**A.** > 25%

**Q.** What about the IC50 [2] of the same compound?
**A.** > 10 µM

**Q.** And the inhibition [3]?
**A.** > 25%

**Q.** What about the inhibition [4] of the same compound?
**A.** > 25%

**Q.** What about the inhibition [5] of the same compound?
**A.** > 25%

**Q.** What about the inhibition [6] of the same compound?
**A.** > 25%

**Q.** And the inhibition [7]?
**A.** > 25%

**Q.** And the IC50 [8]?
**A.** > 10 µM

**Q.** What about the inhibition [9] of the same compound?
**A.** > 25%

**Q.** What about the inhibition [10] of the same compound?
**A.** > 25%

**Q.** And the inhibition [11]?
**A.** > 25%

**Q.** What about the IC50 (A2780) of the same compound?
**A.** 57 µM

**Q.** And the ΔTm [12]?
**A.** 1.2 °C

**Q.** And the IC50 [13]?
**A.** 0.21 µM

**Q.** And the IC50 [14]?
**A.** > 10 µM

**Q.** What about the IC50 (AN3-CA) of the same compound?
**A.** 70 µM

**Q.** And the inhibition [15]?
**A.** > 25%

**Q.** What about the inhibition [16] of the same compound?
**A.** > 25%

**Q.** And the IC50 [17]?
**A.** 14 µM

**Q.** What about the inhibition [18] of the same compound?
**A.** > 25%

**Q.** And the IC50 [19]?
**A.** 1.3 µM

**Q.** What about the inhibition [20] of the same compound?
**A.** > 25%

**Q.** What about the half-life at 1 µM [21] of the same compound?
**A.** > 1 h

**Q.** What about the deltaTm [22] of the same compound?
**A.** inactive

**Q.** What about the inhibition [23] of the same compound?
**A.** > 25%

**Q.** And the inhibition [24]?
**A.** > 25%

**Q.** What about the IC50 [25] of the same compound?
**A.** 22 µM

**Q.** And the IC50 (Cytochrome P450 2C9)?
**A.** > 10 µM

**Q.** And the inhibition [26]?
**A.** > 25%

**Q.** With `Nc1ncccc1-c1nc2cccnc2n1-c1ccc(CNC(=O)c2ccccc2)cc1` as the compound, how does the inhibition [1] read?
**A.** > 25%

**Q.** And the IC50 [2]?
**A.** > 10 µM

**Q.** What about the inhibition [3] of the same compound?
**A.** > 25%

**Q.** What about the inhibition [4] of the same compound?
**A.** > 25%

**Q.** What about the inhibition [5] of the same compound?
**A.** > 25%

**Q.** What about the inhibition [6] of the same compound?
**A.** > 25%

**Q.** What about the inhibition [7] of the same compound?
**A.** > 25%

**Q.** And the IC50 [8]?
**A.** > 10 µM

**Q.** And the inhibition [9]?
**A.** > 25%

**Q.** What about the inhibition [10] of the same compound?
**A.** > 25%

**Q.** What about the inhibition [11] of the same compound?
**A.** > 25%

**Q.** What about the IC50 (A2780) of the same compound?
**A.** > 100 µM

**Q.** What about the ΔTm [12] of the same compound?
**A.** 1.3 °C

**Q.** What about the IC50 [13] of the same compound?
**A.** 0.41 µM

**Q.** And the IC50 [14]?
**A.** > 10 µM

**Q.** And the IC50 (AN3-CA)?
**A.** > 100 µM

**Q.** What about the inhibition [15] of the same compound?
**A.** > 25%

**Q.** What about the inhibition [16] of the same compound?
**A.** > 25%

**Q.** What about the inhibition [18] of the same compound?
**A.** > 25%

**Q.** And the IC50 [19]?
**A.** 0.37 µM

**Q.** What about the inhibition [20] of the same compound?
**A.** > 25%

**Q.** And the half-life at 1 µM [21]?
**A.** > 1 h

**Q.** And the deltaTm [22]?
**A.** inactive

**Q.** What about the inhibition [23] of the same compound?
**A.** > 25%

**Q.** What about the inhibition [24] of the same compound?
**A.** > 25%

**Q.** And the IC50 [25]?
**A.** 24 µM

**Q.** What about the IC50 (Cytochrome P450 2C9) of the same compound?
**A.** > 10 µM

**Q.** And the IC50 [27]?
**A.** 0.023 µM

**Q.** And the inhibition [26]?
**A.** > 25%
